Measurements from EP3421460A1, “2-[(4-ALKYLPHENOXY)-PYRIDINYL]-1-(1,2,4-TRIAZOL-1-YL)ALKAN-2-OL FUNGICIDES” (Bayer Aktiengesellschaft, priority 2018, dated 2019).

Columns and labels:
Phakopsora pachyrhizi = test: in vivo curative test on Phakopsora (soybeans); details: sprayed 3 days after inoculation, evaluated 7 days after inoculation
Experimental: Example A: in vivo curative test on Phakopsora (soybeans); comparison of compound I-01 according to the invention vs. related compounds known from WO-A 2017/029179 and WO-A 2013/007767, respectively [table] To produce a suitable preparation of active compound, 1 part by weight of active compound is mixed with the stated amounts of solvent and emulsifier, and the concentrate is diluted with water to the desired concentration. To test for curative activity, young plants are inoculated with an aqueous spore suspension of the causal agent of soybean rust (Phakopsora pachyrhizi) and stay for 24h without light in an incubation cabinet at approximately 24°C and a relative atmospheric humidity of 95 %. The plants remain in the incubation cabinet at approximately 24°C and a relative atmospheric humidity of approximately 80 % and a day / night interval of 12h. 3 days after the inoculation, the plants are sprayed with the preparation of active compound at the stated rate of application. The test is evaluated 7 days after the inoculation. 0% means an efficacy which corresponds to that of the untreated control, while an efficacy of 100% means that no disease is observed. Table: in vivo curative test on Phakopsora test (soybeans)

[1] = LogP measurement by HPLC on reversed phase columns (EEC directive 79/831 Annex V.A8); assay type: physicochemical; details: reversed phase HPLC column; method [a]: LC-UV, acidic range, 0.1% formic acid in water and acetonitrile as eluent
Experimental: LogP values: Measurement of LogP values was performed according to EEC directive 79/831 Annex V.A8 by HPLC (High Performance Liquid Chromatography) on reversed phase columns with the following methods: • [a] […] If more than one LogP value is available within the same method, all the values are given and separated by "+". Calibration was done with straight-chain alkan2-ones (with 3 to 16 carbon atoms) with known LogP values (measurement of LogP values using retention times with linear interpolation between successive alkanones). Lambda-max-values were determined using UV-spectra from 200 nm to 400 nm and the peak values of the chromatographic signals.

Podosphaera leucotricha = test: in vivo curative test on Podosphaera (apples); details: sprayed 2 days after inoculation, evaluated 10 days after inoculation
Experimental: Example B: in vivo curative test on Podosphaera (apples); comparison of compound I-01 according to the invention vs. related compounds known from WO-A 2017/029179 and WO-A 2013/007767, respectively [table] To produce a suitable preparation of active compound, 1 part by weight of active compound is mixed with the stated amounts of solvent and emulsifier, and the concentrate is diluted with water to the desired concentration. To test for curative activity, young plants are inoculated with an aqueous spore suspension of the causal agent of apple mildew (Podosphaera leucotricha). The plants are placed in a greenhouse at approximately 23°C under relative atmospheric humidity of approximately 70%. 2 days after the inoculation, the plants are sprayed with the preparation of active compound at the stated rate of application. The test is evaluated 10 days after the inoculation. 0% means an efficacy which corresponds to that of the untreated control, while an efficacy of 100% means that no disease is observed. Table: in vivo curative test on Podosphaera test (apples)

chromatographic logP [1]	Structure (SMILES)	Efficacy in% (Phakopsora pachyrhizi; rate of application 5 ppm)	Efficacy in% (Phakopsora pachyrhizi; rate of application 10 ppm)	Efficacy in% (Podosphaera leucotricha; rate of application 1 ppm)	Efficacy in% (Podosphaera leucotricha; rate of application 10 ppm)
2.69	Cc1ccc(Oc2ccc(C(C)(O)Cn3cncn3)c(C(F)(F)F)n2)cc1 (stereo not shown) [I-01, 2-[6-(4-methylphenoxy)-2-(trifluoromethyl)pyridin-3-yl]-1-(1,2,4-triazol-1-yl)propan-2-ol]	86%	83%	86%	99%
	CC(O)(Cn1cncn1)c1ccc(Oc2ccc(S(F)(F)(F)(F)F)cc2)nc1C(F)(F)F (stereo not shown) [drawing 9]	0%	0%		
	CC(O)(Cn1cncn1)c1ccc(Oc2ccc(Cl)cc2)cc1C(F)(F)F (stereo not shown) [drawing 10]	8%	15%		
	CC(O)(Cn1cncn1)c1ccc(Oc2ccc(S(F)(F)(F)(F)F)cc2)nc1C(F)(F)F (stereo not shown) [drawing 12]			62%	92%
	CC(O)(Cn1cncn1)c1ccc(Oc2ccc(Cl)cc2)cc1C(F)(F)F (stereo not shown) [drawing 13]			71%	95%
